In patent publication US11306064B2, “Benzothia(di)azepine compounds and their use as bile acid modulators” (Albireo AB, priority 2018, dated 2022):

What was measured:
[1] = target: T1, Human LBAT (Homo sapiens, UniProt Q14973); assay: LBAT (h/m) assay: 3H-taurocholic acid uptake in human LBAT-overexpressing cells; format: cell-based; conditions: 0.3 μM 3H-taurocholic acid and 7.5 μM cold taurocholic acid, 20 minutes, read-out: hLBAT IC50
T1 construct: expressed in transfected cells; kept under Geneticin selection
T1 sequence (Q14973 1-349): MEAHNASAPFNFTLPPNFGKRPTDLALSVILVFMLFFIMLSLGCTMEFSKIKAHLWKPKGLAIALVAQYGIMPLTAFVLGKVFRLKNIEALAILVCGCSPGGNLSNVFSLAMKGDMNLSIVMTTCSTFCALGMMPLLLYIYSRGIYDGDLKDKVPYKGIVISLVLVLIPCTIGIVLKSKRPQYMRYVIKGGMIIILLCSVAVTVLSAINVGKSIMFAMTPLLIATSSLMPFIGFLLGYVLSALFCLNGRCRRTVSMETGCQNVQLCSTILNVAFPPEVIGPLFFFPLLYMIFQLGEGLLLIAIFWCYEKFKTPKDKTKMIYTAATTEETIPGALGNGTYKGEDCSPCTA
Protocol: LBAT (h/m) Assay Protocol
20,000 cells (Human or Mouse LBAT-overexpressing cells) were seeded in 96-wells plate (Corning CLS3809) in 100 μL MEM-alpha medium (Gibco 12571-063) supplemented with 10% FBS (Gibco 10438026) containing Geneticin (Gibco 10131-027) (1 mg/mL) and incubated at 37° C. in 5% CO2 for 24 hours. After incubation, media was decanted from the wells and cells were washed two times with 300 μL of basal MEM-alpha medium (FBS-free). After decanting basal MEM-alpha medium each time, plates were tapped against paper towel to ensure maximum removal of residual media. For human LBAT, incubation mix was prepared by adding test inhibitor dilutions (3-fold serial dilution in DMSO (Sigma D2650), 10 points) in MEM-alpha (without FBS) containing 0.3 μM 3H-taurocholic acid (ARC ART-1368) and 7.5 μM cold taurocholic acid (Sigma T4009) (maintaining 0.2% final DMSO concentration). For mouse LBAT, incubation mix was prepared by adding test inhibitor dilutions (3-fold serial dilution in DMSO, 10 points) in MEM-alpha (without FBS) containing 0.3 μM 3H-taurocholic acid and 25 μM cold taurocholic acid maintaining 0.2% final DMSO concentration).
50 μL of incubation mix containing test inhibitors was then added to the wells (in duplicate) and the plates were incubated for 20 minutes in a CO2 incubator at 37° C. After incubation, the reaction was stopped by keeping the plates on ice water mix for 2-3 minutes and then the incubation mix was aspirated completely from the wells. The wells were washed two times with 250 μL of chilled unlabelled 1 mM taurocholic acid dissolved in HEPES (Gibco 15630080)-buffered (10 mM) HBSS (Gibco 14175079) (pH 7.4). The plates were tapped against a paper towel after every wash to ensure maximum removal of blocking buffer.
100 μL of MicroScint-20 (PerkinElmer 6013621) was added to the wells and kept overnight at room temperature before reading the plates in TopCount NXT™ Microplate Scintillation and Luminescence Counter from PerkinElmer under 3H Test protocol (set at 120 seconds reading time per well, with normal plate orientation).
(§1) Preparation of Test Compound Dilutions
(§2) All test compounds were provided in powder form at room temperature. 10 mM DMSO stocks of the test compounds were prepared, aliquoted and stored at −20° C. From the 10 mM DMSO stock of the compounds, a 3-fold serial dilution in DMSO was prepared to get a total of 10 dilutions of the test compounds. 0.5 μL of this dilution in DMSO was added to 250 μL of FBS-free basal media containing 3H-taurocholic acid and cold taurocholic acid to prepare the incubation mixture.

[2] = target: T2, Human ASBT (Homo sapiens, UniProt Q12908); assay: ASBT (h/m) assay: 3H-taurocholic acid uptake in human ASBT-overexpressing cells; format: cell-based; conditions: 0.25 μM 3H-taurocholic acid and 5 μM cold taurocholic acid, 20 minutes, read-out: hASBT IC50
T2 construct: expressed in transfected cells; kept under Puromycin selection
T2 sequence (Q12908 1-348): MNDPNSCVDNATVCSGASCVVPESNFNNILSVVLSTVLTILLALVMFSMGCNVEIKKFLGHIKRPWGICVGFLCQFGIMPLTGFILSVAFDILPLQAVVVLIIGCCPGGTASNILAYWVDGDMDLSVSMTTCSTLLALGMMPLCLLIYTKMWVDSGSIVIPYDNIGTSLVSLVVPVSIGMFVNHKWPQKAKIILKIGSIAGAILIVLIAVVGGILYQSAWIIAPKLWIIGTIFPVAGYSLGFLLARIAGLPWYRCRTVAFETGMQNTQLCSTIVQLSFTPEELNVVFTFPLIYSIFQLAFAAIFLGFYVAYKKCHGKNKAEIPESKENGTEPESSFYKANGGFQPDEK
Protocol: ASBT (h/m) Assay Protocol
10,000 cells (Human or Mouse ASBT-overexpressing cells) were seeded in 96-wells plate (Corning CLS3809) in 200 μL MEM-alpha medium (Gibco 12571-063) supplemented with 10% FBS (Gibco 10438026) containing Puromycin (Gibco A1113803) (10 μg/mL) and incubated at 37° C. in 5% CO2 for 48 hours. After incubation, media was decanted from the wells and cells were washed two times with 300 μL of basal MEM-alpha medium (FBS-free). After decanting basal MEM-alpha medium each time, plates were tapped against paper towel to ensure maximum removal of residual media. Test inhibitor dilutions (highest test concentration being 10 μM, 3-fold serial dilution, 10 points) prepared in DMSO (Sigma D2650) were added in incubation mix (maintaining 0.2% final DMSO concentration) containing 0.25 μM 3H-taurocholic acid (ARC ART-1368) and 5 μM of cold taurocholic acid (Sigma T4009). 50 μL of incubation mix containing test inhibitors was then added to the wells (in duplicate) and the plates were incubated for 20 minutes in a CO2 incubator at 37° C. After incubation, the reaction was stopped by keeping the plates on ice water mix for 2-3 minutes and then the incubation mix was aspirated completely from the wells. The wells were washed two times with 250 μL of chilled unlabelled 1 mM taurocholic acid dissolved in HEPES (Gibco 15630080)-buffered (10 mM) HBSS (Gibco 14175079) (pH 7.4). The plates were tapped against a paper towel after every wash to ensure maximum removal of blocking buffer.
100 μL of MicroScint-20 (PerkinElmer 6013621) was added to the wells and kept overnight at room temperature before reading the plates in TopCount NXT™ Microplate Scintillation and Luminescence Counter from PerkinElmer under 3H Test protocol (set at 120 seconds reading time per well).
as §1, §2

| Compound | IC50 [1] [µM] | IC50 [2] [µM] |
| --- | --- | --- |
| CCCC[C@]1(CC)CN(c2ccccc2)c2cc(SC)c(O/C=C/C(=O)O)cc2S(=O)(=O)N1 (single isomer, unassigned) [Example 78] | 0.096 | 0.156 |
| CCCC[C@@]1(CC)CN(c2ccccc2)c2cc(F)c(O/C=C/C(=O)O)cc2S(=O)(=O)C1 (single isomer, unassigned) [Example 103] | 0.187 | 0.32 |
| CCCCC1(CCCC)CN(c2ccccc2)c2cc(Br)c(O/C=C/C(=O)O)cc2S(=O)(=O)N1 [Example 75, (E)-3-((7-bromo-3,3-dibutyl-1,1-dioxido-5-phenyl-2,3,4,5-tetrahydro-1,2,5-benzothiadiazepin-8-yl)oxy)acrylic Acid] | 0.349 | 0.148 |
| CCCCC1(CCCC)CN(c2ccccc2)c2cc(N(C)C)c(O/C=C(\F)C(=O)O)cc2S(=O)(=O)N1 [Example 97, (Z)-3-((3,3-dibutyl-7-(dimethylamino)-1,1-dioxido-5-phenyl-2,3,4,5-tetrahydro-1,2,5-benzothiadiazepin-8-yl)oxy)-2-fluoroacrylic Acid] | 0.341 | 0.009 |
| CCCCC1(CCCC)CN(c2ccccc2)c2cc(F)c(O/C=C/C(=O)O)cc2S(=O)(=O)C1 [Example 81, (E)-3-((3,3-dibutyl-7-fluoro-1,1-dioxido-5-phenyl-2,3,4,5-tetrahydro-1,5-benzothiazepin-8-yl)oxy)acrylic Acid] | 0.21 | 0.771 |
| CCCCC1(CC)CN(c2ccccc2)c2cc(NC)c(O/C=C/C(=O)O)cc2S(=O)(=O)C1 (racemic) [Example 91, (E)-3-((3-butyl-3-ethyl-7-(methylamino)-1,1-dioxido-5-phenyl-2,3,4,5-tetrahydro-1,5-benzothiazepin-8-yl)oxy)acrylic Acid] | 1.3 | 0.041 |
| CCCCC1(CC)CN(c2ccccc2)c2cc(SC)c(O/C=C/C(=O)O)cc2S(=O)(=O)C1 (single isomer, unassigned) [Example 17, (E)-3-((3-butyl-3-ethyl-7-(methylthio)-1,1-dioxido-5-phenyl-2,3,4,5-tetrahydro-1,5-benzothiazepin-8-yl)oxy)acrylic acid] | 0.116 | – |
| CCCC[C@]1(CC)CN(c2ccccc2)c2cc(N(C)C)c(O/C=C(\F)C(=O)O)cc2S(=O)(=O)C1 (single isomer, unassigned) [Example 110] | 0.033 | 0.138 |
| CCCCC1(CCCC)CN(c2ccccc2)c2cc(SC)c(O/C=C/C(=O)O)cc2S(=O)(=O)C1 [Example 1, (E)-3-((3,3-dibutyl-7-(methylthio)-1,1-dioxido-5-phenyl-2,3,4,5-tetrahydro-1,5-benzothiazepin-8-yl)oxy)acrylic acid] | 0.145 | 0.07 |
| CCCCC1(CC)CN(c2ccccc2)c2cc(Br)c(O/C=C/C(=O)O)cc2S(=O)(=O)C1 (racemic) [Example 4, (E)-3-((7-bromo-3-butyl-3-ethyl-1,1-dioxido-5-phenyl-2,3,4,5-tetrahydro-1,5-benzothiazepin-8-yl)oxy)acrylic acid] | 0.218 | 0.167 |
| CCCC[C@]1(CC)CN(c2ccccc2)c2cc(F)c(O/C=C/C(=O)O)cc2S(=O)(=O)C1 (single isomer, unassigned) [Example 102] | 0.298 | 3.33 |
| CCCC[C@@]1(CC)CN(c2ccccc2)c2cc(SC)c(O/C=C/C(=O)O)cc2S(=O)(=O)N1C (single isomer, unassigned) [Example 89] | 0.29 | 2.01 |
| CCCCC1(CCCC)CN(c2ccccc2)c2cc(SCC)c(O/C=C/C(=O)O)cc2S(=O)(=O)C1 [Example 67, (E)-3-((3,3-dibutyl-7-(ethylthio)-1,1-dioxido-5-phenyl-2,3,4,5-tetrahydro-1,5-benzothiazepin-8-yl)oxy)acrylic Acid] | 0.461 | 0.192 |
| CCCCC1(CCCC)CN(c2ccc(C(=O)N(C)C)cc2)c2cc(SC)c(O/C=C(\F)C(=O)O)cc2S(=O)(=O)C1 [Example 104, (Z)-3-((3,3-dibutyl-5-(4-(dimethylcarbamoyl)phenyl)-7-(methylthio)-1,1-dioxido-2,3,4,5-tetrahydro-1,5-benzothiazepin-8-yl)oxy)-2-fluoroacrylic Acid] | 0.29 | 3.33 |
| CCCCC1(CC)CN(c2ccccc2)c2cc(SC)c(O/C=C/C(=O)O)cc2S(=O)(=O)N1 (racemic) [Example 76, (E)-3-((3-butyl-3-ethyl-7-(methylthio)-1,1-dioxido-5-phenyl-2,3,4,5-tetrahydro-1,2,5-benzothiadiazepin-8-yl)oxy)acrylic Acid] | 0.217 | 0.041 |
| CCCCC1(CCCC)CN(c2ccccc2)c2cc(SC)c(O/C=C(\F)C(=O)O)cc2S(=O)(=O)N1C [Example 105, (Z)-3-((3,3-dibutyl-2-methyl-7-(methylthio)-1,1-dioxido-5-phenyl-2,3,4,5-tetrahydro-1,2,5-benzothiadiazepin-8-yl)oxy)-2-fluoroacrylic Acid] | 0.068 | – |
| CCCCC1(CC)CN(c2ccccc2)c2cc(Cl)c(O/C=C/C(=O)O)cc2S(=O)(=O)C1 (single isomer, unassigned) [Example 51, (E)-3-((3-butyl-7-chloro-3-ethyl-1,1-dioxido-5-phenyl-2,3,4,5-tetrahydro-1,5-benzothiazepin-8-yl)oxy)acrylic acid] | 0.096 | – |
| CCCCC1(CC)CN(c2ccccc2)c2cc(SC)c(O/C=C\C(=O)O)cc2S(=O)(=O)C1 (racemic) [Example 59, (Z)-3-((3-butyl-3-ethyl-7-(methylthio)-1,1-dioxido-5-phenyl-2,3,4,5-tetrahydro-1,5-benzothiazepin-8-yl)oxy)acrylic acid] | – | 0.085 |
| CCCC[C@]1(CC)CN(c2ccccc2)c2cc(SC)c(O/C=C\C(=O)O)cc2S(=O)(=O)C1 (single isomer, unassigned) [Example 61] | – | 1.62 |
